Results on one compound are retold here after patent US9994536B2, “Compounds and methods of treating neurological disorders” (TORREY PINES INSTITUTE FOR MOLECULAR STUDIES, priority 2014, dated 2018).

The subject of data set [1] is sAPPα released from 7WD10 cells (CHO cells stably expressing APP751). Kind of data set: AlphaLISA sAPPα release assay (pilot HTS). The conditions noted are these: 5 μM, 7WD10 cells, 24 h. The format is cell-based. The method, then:
(1). The pilot screen was performed using five 384 well plates. […] FDA approved oncology set was screened at 10 μM final assay concentration, while thiazole derivatives were screened at 5 μM. Seven hits from thiazole derivatives were identified using Ave+3SD rule (45) as a nominal cutoff for hit determination (FIG. 1.1 (bottom)). The hits represented a novel piperazine thiazole chemotype (FIG. 1.2).
Pilot screen of AlphaLISA sAPPα release assay. 8 μL of assay media (DMEM supplemented with 10% FBS and 1× Penicillin/Streptomycin) containing 20,000 cells were added to all wells of the assay plate, except column 1 where only media was added. Plates were incubated for 4 h at 37° C., 5% CO2, 95% RH after which 80 nL of test compounds in DMSO or DMSO alone were added to respective wells using a pin tool device (VP Scientific, San Diego). After 24 h of incubation at 37° C., 5% CO2, 95% RH, sAPPα AlphaLISA beads were added in 10 μL of buffer, equilibrated for 1 h, and AlphaLISA signal was measured using a Biotek H4 Synergy microplate reader (Biotek Inc). Three parameters were calculated on a per-plate basis: (a) the signal-to-background ratio (S/B); (b) the coefficient for variation [CV; CV=(standard deviation/mean)×100)] for all compound test wells; and (c) the Z′-factor [31]. Nominally active compounds from the pilot screen were determined using mean plus 3 times the standard deviation (Mean+3SD) was used as the cut-off.
In the absence of known pharmacological agents capable of inducing an increase of sAPPα release, we tested a small molecule (FIG. 2.4A insert, compound 1 in [2]) shown to decrease Aβ release. It was shown that decrease of Aβ release could be accompanied by the increase of soluble APPα, which has a neuroprotective effect. Compound 1 was tested using 20,000 cells/well in the range of 1.2-100 μM using 3-fold serial dilutions and 24 h incubation as an assay endpoint. Increase of sAPPα release was observed only in wells where 100 μM of compound 1 was added either with or without FBS (FIG. 2.4A). Viability of cells was also tested in the presence of 1.2-100 μM of compound 1 to ascertain that the increase of sAPPα release is not due to excessive cell death. Consistent with the above described results, cells were less viable in the absence of FBS. In the presence of 1.2-33 μM of compound 1, cells were approximately 10% less viable than untreated control either with or without FBS (FIG. 2.4B).
To evaluate the ability of the assay to identify compounds that increase the release of sAPPα a pilot screen was conducted using FDA approved oncology set (n=101) and TPIMS heterocycles library (n=700). The pilot screen was performed using five 384 well plates. […]
(In general: In Alpha technology, singlet oxygen from a donor bead excites a nearby acceptor bead.)

Data set [2] in a line: Brain levels of compound after i.p. injection (BBB passage), LC-MS. The format is in vivo, mouse. The method, then: (3). Since blood brain barrier (BBB) is the main obstacle for drug development for any CNS disorders, we first wanted to verify whether compound THPI-244 enters the brain. We followed protocols exactly as published previously from our laboratory (Hayes, C D et al., 2013, BMC Med. 26, 11.81). […] We generated a standard graph (FIG. 1.4 (middle)) to be used in the quantitation of THPI-244 in the brain after intraperitoneal (i.p.) injections at 0.2 mg/kg body weight.

Data set [3] relates to fibroblasts derived directly from AD patients. Kind of data set: MTT cytotoxicity assay, AD fibroblasts. The format is cell-based. Conditions: 24 h exposure, human AD fibroblasts. The text has this: (4). Toxicity is another crucial limitation for successful drug development as evidenced by recent failure of γ-secretase inhibitors at the clinical trials due to cytotoxicity (Cole, S L and Vassar, R, 2007, Mol. Neurodeg. 2, 22-47; Doody R S, et al. 2013. N. Eng. J. Med. 369, 341-350). Therefore we measured cytotoxicity by very sensitive MTT assay as described previously (Hayes, C D., et al. 2013, BMC Medicine. 26, 11.81; 23; Hayes, C D., et al., 2012, PLoS One 7, e45841) in human primary neurons obtained from a commercial source (cat #1520, ScienCell, Carlsbad, Calif., USA) and fibroblasts derived directly from AD patients (cat #AG06263C, Coriell Institute Cell repository supported by NINDS, NIH). […] We directly used human neurons for toxicity studies so as to reduce the chances of future failure at a later stage due to toxicity.

The test system of the next data set is Aβ42. Kind of data set: Aβ42 ELISA, NT2 stable cells. The data set is classed as cell-based, human. The method, then: (5). To confirm the effect of THPI-244 on sAPPα levels in a neuronal cell line and by a tertiary assay, we exposed human Neuron-committed Teratocarcinoma cell line (NT2) stably expressing human APP751 to different concentrations of THPI-244 for 24 h and compared with that of Bryostatin, a classical activator of PKC known to stimulate sAPPα release. […] Levels of sAPPα were measured by ELISA using commercially available kit (cat #27734, IBL-America, Minneapolis, Minn., USA). […] Similar biphasic effect of Bryostatin was confirmed for Aβ42 also, measured again in NT2 stable cells by ELISA (cat #KHB3441, Life Technologies, Grand Island, N.Y., USA). Consistent with sAPPα, THPI-244 decreased Aβ42 levels dose-dependently starting from 50 nM (28%, p<0.05) to 2000 nM (64%, p<0.001) (n=4 independent experiments) (FIG. 1.7). Thus THPI-244 increased non-amyloidogenic processing of APP in NT2 cells.
Background: ELISA stands for enzyme-linked immunosorbent assay.

The subject of a further data set is human primary neurons. Kind of data set: Neurite outgrowth, Sholl analysis of dendritic intersections. The data set is classed as cell-based. The text has this:
(4). The most important property of THPI-244 is its ability to increase neurite outgrowth and dendritic intersections in human primary neurons. Since both TrkA and sAPPα promote neuron growth and provide trophic support, we tested whether treatment of human primary neurons with THPI-244 induces neurite outgrowth. […] Considering an enormous potential for such an excellent results in human neurons, we did systematic analysis by also treating neurons in the presence of TrkA inhibitor to verify if the increased neurite outgrowth is mediated by TrkA receptor. Sholl analysis using ImageJ software of individual neurons (at least 30 per group) immunostained for MAP2 antibody confirmed our initial findings. […] This confirmed that THPI-244 increases TrkA protein levels which has vital role in regulating neuritic outgrowth.

For the compound `O=C(Cc1ccccc1)N[C@H](CNc1nc(CN2CCN(C(=O)Cc3ccccc3)CC2)cs1)c1ccccc1` [THPI-244], the “increase of Alpha signal (sAPPα release)” value in data set [1] is listed as about 2 fold. Moreover, in data set [2] (0.2 mg/kg i.p., mouse), the “time to maximum level in brain” value is recorded as at most 5 min. The “amount remaining in brain” value in data set [2] (240 min after 0.2 mg/kg i.p.) is recorded as “negligible amount”. The “lowest concentration with significant cytotoxicity” value in data set [3] turned out to be 50 µM. Also, the “lowest concentration with significant decrease of Aβ42” value in the data set on Aβ42 worked out at 50 nM. Also, the “number of dendritic intersections” value is given as “highly significant increase” with human primary neurons (treated 2DIV to 6DIV) and “almost completely prevented the increased intersections” in the data set with human primary neurons (with TrkA inhibitor, 2DIV to 6DIV).
